This is an account of results in PubChem BioAssay (NCI).

Among the test systems are MOLT-4 leukemia; SF-539 CNS; IGROV1 ovarian; OVCAR-4 ovarian; U251 CNS; HL-60(TB) leukemia; SNB-75 CNS; 786-0 renal; M19-MEL melanoma; DMS 114 small cell lung.
Common to all, as to test: NCI anticancer screen, dose series, 48 h

Where “and” joins values, the source holds several entries; their conditions need not be identical. Equal values may be shown once.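 Step 1: Grow cells in 96-well plates. Step 2: Expose to compound for 48 hours at 5 concentrations. Step 3: Interpolate endpoints linearly; if unreached, use highest concentration. The concentration for 50% growth inhibition is given as GI50. The concentration for full growth arrest is given as TGI.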

`C#Cc1cccc(NC(=O)C2CCCN(C(=O)CCl)C2)c1` (stereo not given): the GI50 was 23.4 µM in the assay on MOLT-4 leukemia; over 82.5 µM in the assay on SF-539 CNS; 14.3 µM in the assay on IGROV1 ovarian; 19.5 µM in the assay with OVCAR-4 ovarian; over 82.5 µM in the assay on U251 CNS; over 82.5 µM with HL-60(TB) leukemia. The GI50 in the assay with SNB-75 CNS and with 786-0 renal was over 82.5 µM throughout. Further, the TGI is 75.1 µM with MOLT-4 leukemia; over 82.5 µM in the assay on SF-539 CNS; 33.3 µM in the assay with IGROV1 ovarian; 52.8 µM in the assay on OVCAR-4 ovarian; over 82.5 µM in the assay on U251 CNS; over 82.5 µM in the assay with HL-60(TB) leukemia. Further, the TGI in the assay on SNB-75 CNS and in the assay with 786-0 renal was over 82.5 µM in each case.

For the compound `COc1ccc(/C=C\c2cc(OC)c(OC)c(OC)c2)c(NS(=O)(=O)c2ccc(C(C)(C)C)cc2)c1O`, the GI50 was 0.202 µM with MOLT-4 leukemia; 0.159 µM in the assay with SF-539 CNS; 0.986 µM in the assay with IGROV1 ovarian; 0.188 µM in the assay with OVCAR-4 ovarian; 0.597 µM with U251 CNS; 0.039 µM in the assay on HL-60(TB) leukemia. Also, the GI50 is 0.231 µM in the assay on SNB-75 CNS and 0.49 µM with 786-0 renal. Moreover, the TGI in the assay on MOLT-4 leukemia worked out at 3.94 µM; with SF-539 CNS, 0.509 µM; in the assay with IGROV1 ovarian, 35.8 µM; in the assay on OVCAR-4 ovarian, 32 µM; in the assay on U251 CNS, 21.8 µM; in the assay on HL-60(TB) leukemia it was 2.34 µM. Besides, the TGI with SNB-75 CNS was 14.1 µM; with 786-0 renal, 14.6 µM.

Turning to `c1ccc2c3c([nH]c2c1)C1C2CCCCN2C(c2ccncc2)N1CC3` (stereo not given), the TGI was over 100 µM in the assay with MOLT-4 leukemia; over 100 µM with M19-MEL melanoma; over 100 µM in the assay on SF-539 CNS; 83.5 µM in the assay with DMS 114 small cell lung; over 100 µM with OVCAR-4 ovarian; over 100 µM with U251 CNS. Besides, the TGI is 52.5 µM in the assay with HL-60(TB) leukemia, 89 µM with SNB-75 CNS and over 100 µM in the assay on 786-0 renal.

As to `C=C(Cl)[C@@](Cl)(CBr)CC[C@@H](Br)C(C)(C)Cl`, the GI50 is 17.5 µM in the assay with MOLT-4 leukemia; 0.0282 µM in the assay with SF-539 CNS; 14.7 µM in the assay on IGROV1 ovarian; 2.29 µM in the assay on OVCAR-4 ovarian; 0.971 µM in the assay on U251 CNS; 0.0686 µM with HL-60(TB) leukemia. The GI50 was 1.35 µM in the assay on SNB-75 CNS and 0.0733 µM in the assay with 786-0 renal. Moreover, the TGI was 58.4 µM and 63.8 µM in the assay on MOLT-4 leukemia; 0.325 µM in the assay with SF-539 CNS; 32.2 µM and 32.6 µM in the assay with IGROV1 ovarian; 7.36 µM and 3.15 µM in the assay on OVCAR-4 ovarian; > 100 µM and 10.5 µM in the assay on HL-60(TB) leukemia; 0.286 µM and 0.247 µM in the assay on 786-0 renal.

Take `COc1ccc(/C=C/C(C)=N/OCC(=O)Nc2ccc(Cl)cc2)cc1`: the GI50 with MOLT-4 leukemia was 2.23 µM; in the assay with SF-539 CNS, 3.16 µM; in the assay with IGROV1 ovarian, 3.42 µM; with OVCAR-4 ovarian it was 1.97 µM; in the assay with U251 CNS, 2.94 µM; with HL-60(TB) leukemia, 2.55 µM. The GI50 with SNB-75 CNS was 3.21 µM; in the assay with 786-0 renal it was 4.2 µM. Besides, the TGI in the assay with MOLT-4 leukemia is 9.97 µM; in the assay with SF-539 CNS it was 13.4 µM; in the assay on IGROV1 ovarian, 51.6 µM; with OVCAR-4 ovarian, 9.96 µM; in the assay on U251 CNS it was 13.7 µM; with HL-60(TB) leukemia it was 10.5 µM. Moreover, the TGI worked out at 32.6 µM in the assay with SNB-75 CNS and 26.6 µM with 786-0 renal.

In the case of `COc1cc(N(CCC#N)CCC#N)ccc1/C(N=Nc1ccc(C(=O)O)cc1)=N/NC(=O)c1cc(Br)ccc1O`, the GI50 in the assay with MOLT-4 leukemia was 67.5 µg/mL; with SF-539 CNS, 85.8 µg/mL; with IGROV1 ovarian, 78.1 µg/mL; in the assay with OVCAR-4 ovarian, 30 µg/mL; in the assay on U251 CNS, over 150 µg/mL; with HL-60(TB) leukemia, 55.4 µg/mL. Also, the GI50 with SNB-75 CNS is 57.2 µg/mL; in the assay on 786-0 renal, 97.8 µg/mL. The TGI in the assay on MOLT-4 leukemia was over 150 µg/mL; with SF-539 CNS, over 150 µg/mL; in the assay with IGROV1 ovarian it was over 150 µg/mL; with OVCAR-4 ovarian, 65.5 µg/mL; in the assay with U251 CNS, over 150 µg/mL; with HL-60(TB) leukemia it was over 150 µg/mL. Moreover, the TGI with SNB-75 CNS is 130 µg/mL; in the assay on 786-0 renal it was over 150 µg/mL.

As for `O=C(Nc1ccc(C(F)(F)F)cc1[N+](=O)[O-])c1cccnc1`, the TGI in the assay on MOLT-4 leukemia is over 100 µM; with SF-539 CNS it was 25.5 µM; in the assay with IGROV1 ovarian, over 100 µM; with OVCAR-4 ovarian, over 100 µM; with U251 CNS, over 100 µM; in the assay with HL-60(TB) leukemia, over 100 µM. The TGI in the assay with SNB-75 CNS and in the assay on 786-0 renal was over 100 µM in each case.

`Cc1ccc(C2=C(Cl)C(=O)C(c3ccc(C)cc3)=C(Cl)C2=O)cc1`: the TGI in the assay with MOLT-4 leukemia, in the assay with SF-539 CNS, in the assay on IGROV1 ovarian, in the assay on OVCAR-4 ovarian, in the assay on U251 CNS and in the assay on HL-60(TB) leukemia was over 100 µM throughout. Further, the TGI with SNB-75 CNS and in the assay with 786-0 renal was over 100 µM throughout.

With `Cn1ccnc1C(=O)/C=C/c1ccc(C(=O)Nc2c(F)c(F)c(F)c(F)c2F)cc1`, the GI50 in the assay with MOLT-4 leukemia was 1.91 µM; in the assay on SF-539 CNS it was 1.67 µM; in the assay with IGROV1 ovarian it was 1.75 µM; in the assay on OVCAR-4 ovarian, 1.53 µM; with U251 CNS it was 1.09 µM; in the assay on HL-60(TB) leukemia it was 1.8 µM. Besides, the figures for the GI50 in the assay with SNB-75 CNS and in the assay with 786-0 renal were 1.33 µM and 1.83 µM, respectively. Moreover, the TGI was 4.81 µM in the assay with MOLT-4 leukemia; 3.13 µM with SF-539 CNS; 3.98 µM in the assay with IGROV1 ovarian; 4.52 µM in the assay on OVCAR-4 ovarian; 2.34 µM with U251 CNS; 4.74 µM in the assay with HL-60(TB) leukemia. In addition, the TGI worked out at 2.69 µM in the assay on SNB-75 CNS and 3.62 µM in the assay on 786-0 renal.

Turning to `CNCc1cccc2c1OCCOCCOCCC(C)S(=O)(=O)c1ccc(cc1)-c1cnc(N)c(n1)C(=O)N2` (stereo not given), the GI50 with MOLT-4 leukemia is 1.3 µM; in the assay with SF-539 CNS, 1.28 µM; with IGROV1 ovarian, 0.659 µM; in the assay on OVCAR-4 ovarian, 1.32 µM; in the assay with U251 CNS it was 1.15 µM; in the assay with HL-60(TB) leukemia it was 1.81 µM. Further, the figures for the GI50 with SNB-75 CNS and in the assay on 786-0 renal were 0.119 µM and 0.516 µM, respectively. For the same compound, the TGI turned out to be 10.3 µM with MOLT-4 leukemia; 2.56 µM in the assay on SF-539 CNS; 4.78 µM in the assay with IGROV1 ovarian; 4.32 µM with OVCAR-4 ovarian; 3.62 µM in the assay with U251 CNS; 3.83 µM in the assay with HL-60(TB) leukemia. The TGI with SNB-75 CNS amounted to 1.59 µM; in the assay on 786-0 renal it was 2.06 µM.
